The target of the experiment is T1, human A2a receptor (Homo sapiens, UniProt P29274).
T1 construct: purchased Perkin-Elmer RBHA2AM400UA; host or cells: HEK293 cells (membranes)
The experiment in a line: A2a competition binding assay, Scintillation Proximity technology. The settings on record: membranes from HEK293 cells expressing human A2a receptor; Ki by Cheng-Prusoff equation. In a few lines: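 SPA competition: 0.5 nM tritiated pyrazolotriazolopyrimidine ligand displaced by compound at 3000 to 0.15 nM, 1 h room temperature, human A2a HEK293 membranes pretreated with adenosine deaminase, PBS/10 mM MgCl2 buffer. CGS15943 1 μM defined non-specific binding; EC50 converted to Ki via Cheng-Prusoff.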

Structures are written as SMILES.

Ki data for 39 compounds are collected here from US10472347B2, “Aminopyrazine compounds with A2A antagonist properties” (Merck Sharp & Dohme Corp., priority 2014, dated 2019).

The term Ki denotes a measure of affinity in units of concentration, obtained from inhibition or displacement. Lower therefore signals a stronger hold on the target.

T1 sequence (P29274 whole entry): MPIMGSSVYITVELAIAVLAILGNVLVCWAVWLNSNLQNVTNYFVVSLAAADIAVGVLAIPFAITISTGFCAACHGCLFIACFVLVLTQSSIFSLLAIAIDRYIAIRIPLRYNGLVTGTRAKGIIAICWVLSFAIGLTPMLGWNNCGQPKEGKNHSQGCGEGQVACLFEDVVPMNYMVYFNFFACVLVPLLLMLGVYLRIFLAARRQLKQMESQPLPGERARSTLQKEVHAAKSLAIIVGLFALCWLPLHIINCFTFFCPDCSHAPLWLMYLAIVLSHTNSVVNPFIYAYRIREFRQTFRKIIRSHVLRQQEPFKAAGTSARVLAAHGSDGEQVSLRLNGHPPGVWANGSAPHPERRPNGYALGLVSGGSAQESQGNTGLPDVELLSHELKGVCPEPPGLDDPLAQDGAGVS

As to `Cc1nc(C(=O)NC2CC(O)c3cccnc32)c(N)nc1-c1ncco1` (stereo not drawn) [Ex-240B, 3-amino-N-(5-hydroxy-6,7-dihydro-5H-cyclopenta[b]pyridin-7-yl)-6-methyl-5-(1,3-oxazol-2-yl)pyrazine-2-carboxamide], affinity was put at a Ki of 1.73 nM.
`CCn1ncc2c(CNC(=O)c3nc(C)c(-c4ncco4)nc3N)cccc21` [Ex-242, 3-amino-N-[(1-ethyl-1H-indazol-4-yl)methyl]-6-methyl-5-(1,3-oxazol-2-yl)pyrazine-2-carboxamide] registered an inhibitory constant (Ki) of 1.09 nM.
For the compound `CCn1cc2c(CNC(=O)c3nc(C)c(-c4ncco4)nc3N)cccc2n1` [Ex-243, 3-amino-N-[(2-ethyl-2H-indazol-4-yl)methyl]-6-methyl-5-(1,3-oxazol-2-yl)pyrazine-2-carboxamide], the affinity corresponds to a Ki of 15.1 nM.
Next, `Cc1nc(C(=O)NCc2ncccc2C(F)(F)F)c(N)nc1-c1cnco1` [Ex-249, 3-amino-6-methyl-5-(1,3-oxaol-5-yl)-N-{[3-(trifluoromethyl)-pyridin-2-yl]-methyl}pyrazine-2-carboxamide]: 3.45 nM; `Nc1nc(-c2cnco2)c(Cl)nc1C(=O)NCc1cccc2cccnc12` [Ex-250, 3-amino-6-chloro-5-(1,3-oxazol-5-yl)-N-(quinolin-8-ylmethyl)pyrazine-2-carboxamide]: 2.4 nM; `Cc1nc(C(=O)NCc2c(F)cccc2F)c(N)nc1-c1cnco1` [Ex-251, 3-amino-N-(2,6-difluorobenzyl)-6-methyl-5-(1,3-oxazol-5-yl)pyrazine-2-carboxamide]: 1.1 nM.
Compound `Cc1cccnc1CNC(=O)c1nc(C)c(-c2cnco2)nc1N` [Ex-252, 3-amino-6-methyl-N-[(3-methylpyridin-2-yl)methyl]-5-(1,3-oxazol-5-yl)pyrazine-2-carboxamide] came in with an inhibition constant (Ki) of 1.81 nM.
Next, `Cc1nc(C(=O)NCc2ccc(F)cc2F)c(N)nc1-c1cnco1` [Ex-253, 3-amino-N-(2,4-difluorobenzyl)-6-methyl-5-(1,3-oxazol-5-yl)pyrazine-2-carboxamide]: 8.57 nM; `COc1ccccc1CNC(=O)c1nc(C)c(-c2cnco2)nc1N` [Ex-254, 3-amino-N-(2-methoxybenzyl)-6-methyl-5-(1,3-oxazol-5-yl)pyrazine-2-carboxamide]: 1.47 nM; `Cc1nc(C(=O)NCc2c(Cl)cccc2Cl)c(N)nc1-c1cnco1` [Ex-255, 3-amino-N-(2,6-dichlorobenzyl)-6-methyl-5-(1,3-oxazol-5-yl)pyrazine-2-carboxamide]: 0.2 nM.
In the case of `Cc1cccc(Cl)c1CNC(=O)c1nc(C)c(-c2cnco2)nc1N` [Ex-256, 3-amino-N-(2-chloro-6-methylbenzyl)-6-methyl-5-(1,3-oxazol-5-yl)pyrazine-2-carboxamide] it was 0.196 nM; in that of `Cc1nc(C(=O)NCc2ncccc2C(F)(F)F)c(N)nc1-c1cnco1` [Ex-257, 3-amino-6-methyl-5-(1,3-oxazol-5-yl)-N-{[3-(trifluoromethyl)pyridin-2-yl]methyl}pyrazine-2-carboxamide], 1.94 nM; in that of `Cc1cc(Cl)cc(Cl)c1CNC(=O)c1nc(C)c(-c2cnco2)nc1N` [Ex-258, 3-amino-N-(2,4-dichloro-6-methylbenzyl)-6-methyl-5-(1,3-oxazol-5-yl)pyrazine-2-carboxamide], 2.9 nM.
The compound `Cc1nc(C(=O)NC(C)(C)c2ccccn2)c(N)nc1-c1cnco1` [Ex-259, 3-amino-6-methyl-N-(1-methyl-1-pyridin-2-ylethyl)-5-(1,3-oxazol-5-yl)pyrazine-2-carboxamide] gave a Ki of 403 nM.
The compound `Cc1nc(C(=O)NC(C)(C)c2ccc(F)c(F)c2)c(N)nc1-c1cnco1` [Ex-260, 3-amino-N-[1-(3,4-difluorophenyl)-1-methylethyl]-6-methyl-5-(1,3-oxazol-5-yl)pyrazine-2-carboxamide] registered a Ki of 786 nM.
In the case of `Cc1nc(C(=O)NC(C)(C)c2ccncc2)c(N)nc1-c1cnco1` [Ex-261, 3-amino-6-methyl-N-(1-methyl-1-pyridin-4-ylethyl)-5-(1,3-oxazol-5-yl)pyrazine-2-carboxamide] it was 1420 nM.
For the compound `Cc1nc(C(=O)NCC(C)(F)F)c(N)nc1-c1cnco1` [Ex-262, 3-amino-N-(2,2-difluoropropyl)-6-methyl-5-(1,3-oxazol-5-yl)pyrazine-2-carboxamide], the Ki was 340 nM. This Ki is about 4.2-fold lower than that of the compound before.
Next, `Cc1cccc(CNC(=O)c2nc(C)c(-c3cnco3)nc2N)n1` [Ex-263, 3-amino-6-methyl-N-[(6-methylpyridin-2-yl)methyl]-5-(1,3-oxazol-5-yl)pyrazine-2-carboxamide]: 3.75 nM; `Nc1nc(-n2ccnn2)c(Cl)nc1C(=O)NCc1ccccc1C(F)(F)F` [Ex-268, 3-amino-6-chloro-5-(1H-1,2,3-triazol-1-yl)-N-[2-(trifluoromethyl)benzyl] pyrazine-2-carboxamide]: 359 nM; `Nc1nc(-n2nccn2)c(Cl)nc1C(=O)NCc1ccccc1C(F)(F)F` [Ex-269, 3-amino-6-chloro-5-(2H-1,2,3-triazol-2-yl)-N-[2-(trifluoromethyl)benzyl] pyrazine-2-carboxamide]: 4.3 nM.
In the case of `Nc1nc(-n2ccnn2)c(Cl)nc1C(=O)NCc1ccc(F)cc1F` [Ex-270, 3-amino-6-chloro-N-(2,4-difluorobenzyl)-5-(1H-1,2,3-triazol-1-yl)pyrazine-2-carboxamide] it was 6470 nM; in that of `Nc1nc(-n2nccn2)c(Cl)nc1C(=O)NCc1ccc(F)cc1F` [Ex-271, 3-amino-6-chloro-N-(2,4-difluorobenzyl)-5-(2H-1,2,3-triazol-2-yl)pyrazine-2-carboxamide], 6.19 nM.
In the case of `Nc1nc(-n2ccnn2)c(Cl)nc1C(=O)NCc1cccc2cccnc12` [Ex-272, 3-amino-6-chloro-N-(quinolin-8-ylmethyl)-5-(1H-1,2,3-triazol-1-yl)pyrazine-2-carboxamide] it was 269 nM.
In turn, `Nc1nc(-n2nccn2)c(Cl)nc1C(=O)NCc1cccc2cccnc12` [Ex-273, 3-amino-6-chloro-N-(quinolin-8-ylmethyl)-5-(2H-1,2,3-triazol-2-yl)pyrazine-2-carboxamide] returned a Ki of 2.23 nM.
With `Cc1nc(C(=O)NCc2c(F)cccc2F)c(N)nc1-n1nccn1` [Ex-274, 3-amino-N-(2,6-difluorobenzyl)-6-methyl-5-(2H-1,2,3-triazol-2-yl)pyrazine-2-carboxamide], affinity was put at a Ki of 2 nM.
`Cc1nc(C(=O)NCc2cccc3cccnc23)c(N)nc1-n1nccn1` [Ex-275, 3-amino-6-methyl-N-(quinolin-8-ylmethyl)-5-(2H-1,2,3-triazol-2-yl)pyrazine-2-carboxamide] had a Ki of 2.1 nM.
In the case of `CCOC(=O)c1nc(C)c(-n2nccn2)nc1N` [Ex-276, ethyl 3-amino-6-methyl-5-(2H-1,2,3-triazol-2-yl)pyrazine-2-carboxylate] it was 408 nM; in that of `Cc1cccnc1CNC(=O)c1nc(C)c(-n2nccn2)nc1N` [Ex-277, 3-amino-6-methyl-N-[(3-methylpyridin-2-yl)methyl]-5-(2H-1,2,3-triazol-2-yl)pyrazine-2-carboxamide], 3.3 nM.
Next, `Cc1cccnc1CNC(=O)c1nc(C)c(-n2ccnn2)nc1N` [Ex-278, 3-amino-6-methyl-N-[(3-methylpyridin-2-yl)methyl]-5-(1H-1,2,3-triazol-1-yl)pyrazine-2-carboxamide]: 191 nM; `Cc1nc(C(=O)NCc2ccc(Cl)cc2Cl)c(N)nc1-n1nccn1` [Ex-279, 3-amino-N-(2,4-dichlorobenzyl)-6-methyl-5-(2H-1,2,3-triazol-2-yl)pyrazine-2-carboxamide]: 59.3 nM.
As for `Cc1nc(C(=O)NC2CCNc3ccccc32)c(N)nc1-n1nccn1` (stereo not drawn) [Ex-280, 3-amino-6-methyl-N-(1,2,3,4-tetrahydroquinolin-4-yl)-5-(2H-1,2,3-triazol-2-yl)pyrazine-2-carboxamide], the inhibitory constant (Ki) turned out to be 148 nM.
Next, `Nc1nc(-n2nccn2)c(Cl)nc1C(=O)N[C@@H]1CCc2ccccc21` [Ex-281, 3-amino-6-chloro-N-[(1R)-2,3-dihydro-1H-inden-1-yl]-5-(2H-1,2,3-triazol-2-yl)pyrazine-2-carboxamide]: 5.7 nM; `Cc1cccnc1CNC(=O)c1nc(Cl)c(-n2nccn2)nc1N` [Ex-282, 3-amino-6-chloro-N-[(3-methylpyridin-2-yl)methyl]-5-(2H-1,2,3-triazol-2-yl)pyrazine-2-carboxamide]: 1.4 nM.
`COc1ccccc1CNC(=O)c1nc(Cl)c(-n2nccn2)nc1N` [Ex-283, 3-amino-6-chloro-N-(2-methoxybenzyl)-5-(2H-1,2,3-triazol-2-yl)pyrazine-2-carboxamide]: the Ki stood at 2.4 nM.
Next, `Nc1nc(-n2nccn2)c(Cl)nc1C(=O)NCc1ccccc1OC(F)(F)F` [Ex-284]: 6.5 nM; `Nc1nc(-n2nccn2)c(Cl)nc1C(=O)N[C@@H](c1ccccc1)C(F)(F)F` [Ex-286, 3-amino-6-chloro-5-(2H-1,2,3-triazol-2-yl)-N-[(1S)-2,2,2-trifluoro-1-phenylethyl]pyrazine-2-carboxamide]: 124 nM.
In turn, `C[C@@H](NC(=O)c1nc(Cl)c(-n2nccn2)nc1N)c1ccc2ccccc2n1` [Ex-287, 3-amino-6-chloro-N-[(1R)-1-quinolin-2-ylethyl]-5-(2H-1,2,3-triazol-2-yl)pyrazine-2-carboxamide] came in with a Ki of 131 nM.
In the case of `Nc1nc(-n2nccn2)c(Cl)nc1C(=O)NCc1ccccc1Br` [Ex-288, 3-amino-N-(2-bromobenzyl)-6-chloro-5-(2H-1,2,3-triazol-2-yl)pyrazine-2-carboxamide] it was 1.9 nM; in that of `Nc1nc(-n2nccn2)c(Cl)nc1C(=O)NCCc1ccccc1Br` [Ex-289, 3-amino-N-[2-(2-bromophenyl)ethyl]-6-chloro-5-(2H-1,2,3-triazol-2-yl)pyrazine-2-carboxamide], 34.8 nM.
